Test results reported in US20230286973A1, “PROTEIN SECRETION INHIBITORS” (KEZAR LIFE SCIENCES, priority 2020, published 2023).

Experiments:
[1] = system: TNFα-FL/Gaussia Luciferase; experiment: Dox Induced TNFα-FL-Gluc Assay; assay type: cell-based; conditions: for IC50: 24 hr Dox induction, 293FRT/TO cells, read-out: 24 hr Dox Inducible TNFaFLGluc 293FRT/TO: Mean IC50; for 24 hr Dox Inducible TNFaFLGluc 293FRT/TO: TNF/PD1: ratio of TNFaFLGluc IC50 to PD1ssGluc IC50
How it was run: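 Cell line: stable Flp-In 293 T-REx, TNFα-FL(1-233)-Gaussia luciferase fusion, T-REx-inducible. Plated day -1; compounds in DMSO/media + doxycycline, 37 °C, 5% CO2. Undefined stereocentres = mixture tested.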

[2] = system: IL-2-FL/Gaussia Luciferase; experiment: Dox Induced IL2-FL-Gluc Assay; assay type: cell-based; conditions: for IC50: 24 hr Dox induction, 293FRT/TO cells, read-out: 24 hr Dox Inducible IL2FLGluc 293FRT/TO: Mean IC50; for 24 hr Dox Inducible IL2FLGluc 293FRT/TO: IL2/PD1: ratio of IL2FLGluc IC50 to PD1ssGluc IC50
How it was run: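 Stable Flp-In 293 T-REx line, Tet-regulated IL-2 (aa 1-153)–Gaussia luciferase fusion; hygromycin/blasticidin selected. Plated day -1; compound + doxycycline added next day; 37° C, 5% CO2.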

[3] = Liver Microsome Stability Assay (mouse); conditions: mouse liver microsomes, with NADPH, 1.0 uM compound
Method: (§1) Stability of a compound was assessed in the presence of liver microsomes from various sources—mouse, rat, monkey and human liver microsomes. 1.0 uM compound, 0.4% DMSO in 0.1 M Potassium Phosphate with 1.0 mg/mL liver microsomes, were incubated at 37° C. with or without 1 mM NADPH. The samples were quenched at 0, and 30 minutes.

[4] = system: multiple myeloma cell line U266B1; experiment: U266 Cell Viability Assay; assay type: cell-based, human; conditions: Homo sapiens, U-266, 48 h, U266B1 cells, Celltiter-Glo
How it was run: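 Luminescent ATP read-out (CellTiter-Glo) after 48 h compound exposure at 37° C., 5% CO2; cells maintained in RPMI 1640/10% FBS/2 mM glutamine/pen-strep, compounds diluted in DMSO/media.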

[5] = system: HER3-ss+4aa/Gaussia Luciferase; experiment: Dox-Induced Her3-ss-Gluc Assay; assay type: cell-based; conditions: 24 hr Dox induction; 293FRT/TO cells; read-out: 24 hr Dox Inducible Her3(ss + 4)Gluc 293FRT/TO: Mean IC50
How it was run: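 Flp-In 293 T-REx cells, stable HER3-ss+4aa/Gaussia luciferase insert, hygromycin/blasticidin selected; plated day before; compound in DMSO/media + doxycycline; 37° C., 5% CO2.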

[6] = Liver Microsome Stability Assay (human); conditions: human liver microsomes, with NADPH, 1.0 uM compound
Method: as §1

[7] = Liver Microsome Stability Assay (rat); conditions: rat liver microsomes, with NADPH, 1.0 uM compound
Method: as §1

[8] = Liver Microsome Stability Assay (monkey); conditions: monkey liver microsomes, with NADPH, 1.0 uM compound
Method: as §1

[9] = system: multiple myeloma cell line NCI-H929; experiment: H929 Cell Viability Assay; assay type: cell-based, human; conditions: Homo sapiens, NCI-H929, 48 h, NCI-H929 cells, Celltiter-Glo
How it was run: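 Cells in RPMI 1640/10% FBS; compound dilutions in DMSO/media; 48 h, 37° C, 5% CO2; CellTiter-Glo luciferase readout for viability.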

[10] = system: PD1-ss+10aa/Gaussia Luciferase; experiment: Dox-Induced PD1-ss-Gluc Assay; assay type: cell-based; conditions: 24 hr Dox induction; 293FRT/TO cells; read-out: 24 hr Dox Inducible PD1ssGluc 293FRT/TO: Mean IC50
How it was run: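 Flp-In 293 T-REx, stable line; Tet-regulated PD1-ss+10aa fused to Gaussia luciferase; plated day prior; cpd + doxycycline in DMSO/media; 37 °C, 5% CO2.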

SMILES	IC50 [1] [nM]	IC50 [2] [nM]	Liver Microsome Stability (Multiple Species): Mouse - % Remaining after 30 min w/NADPH [3] [%]	EC50 [4] [nM]	IC50 [5] [nM]	Liver Microsome Stability (Multiple Species): Human - % Remaining after 30 min w/NADPH [6] [%]	Liver Microsome Stability (Multiple Species): Rat - % Remaining after 30 min w/NADPH [7] [%]	Liver Microsome Stability (Multiple Species): Monkey - % Remaining after 30 min w/NADPH [8] [%]	EC50 [9] [nM]	IC50 [10] [nM]	24 hr Dox Inducible TNFaFLGluc 293FRT/TO: TNF/PD1 [1]	24 hr Dox Inducible IL2FLGluc 293FRT/TO: IL2/PD1 [2]
CC(=O)N1CC(CCc2ccc(N3CCC[C@@H]3c3csc(NC(=O)c4cccn4Cc4ccnc(F)c4)n3)cc2)C1 [Compound A176]	487	41.8	2.72	> 25000	31	1.34	18.6	0.16	438	15	32.4	2.8
O=C(Nc1ccc(N2CCC[C@@H]2c2csc(NC(=O)c3cccn3Cc3ccnc(F)c3)n2)cc1)OC1COC1 [Compound A177, oxetan-3-yl (R)-(4-(2-(2-(1-((2-fluoropyridin-4-yl)methyl)-1H-pyrrole-2-carboxamido)thiazol-4-yl)pyrrolidin-1-yl)phenyl)carbamate]	25.8	2.79	29.1	> 25000	2.39	39.3	57.1	9.52	16.2	0.93	27.6	3
O=C(Nc1ccc(N2CCC[C@@H]2c2csc(NC(=O)c3cccn3Cc3ccnc(F)c3)n2)cc1)OC1CNC1 [Compound A178, azetidin-3-yl (R)-(4-(2-(2-(1-((2-fluoropyridin-4-yl)methyl)-1H-pyrrole-2-carboxamido)thiazol-4-yl)pyrrolidin-1-yl)phenyl)carbamate]	931	107	70.6	7400	76.3	72.8	51.4	70.8	525	23.9	39	4.5
CC(=O)N1CC(OC(=O)Nc2ccc(N3CCC[C@@H]3c3csc(NC(=O)c4cccn4Cc4ccnc(F)c4)n3)cc2)C1 [Compound A179, 1-acetylazetidin-3-yl (R)-(4-(2-(2-(1-((2-fluoropyridin-4-yl)methyl)-1H-pyrrole-2-carboxamido)thiazol-4-yl)pyrrolidin-1-yl)phenyl)carbamate]	138	9.01	34.8	> 25000	6.96	21.3	69.3	15.4	70.5	2.63	52.3	3.4
COC(=O)Nc1ccc(N2CCC[C@@H]2c2csc(NC(=O)c3cc(C)cn3Cc3ccnc(F)c3)n2)nc1 [Compound A180, methyl (R)-(6-(2-(2-(1-((2-fluoropyridin-4-yl)methyl)-4-methyl-1H-pyrrole-2-carboxamido)thiazol-4-yl)pyrrolidin-1-yl)pyridin-3-yl)carbamate]	49.8	14.3	14.4	> 25000	3.7	8.99	3.14	7.35	715	4.95	440.37	52.35

The next lines start with results.

IC50 [1] [nM]	IC50 [2] [nM]	Liver Microsome Stability (Multiple Species): Mouse - % Remaining after 30 min w/NADPH [3] [%]	EC50 [4] [nM]	IC50 [5] [nM]	Liver Microsome Stability (Multiple Species): Human - % Remaining after 30 min w/NADPH [6] [%]	Liver Microsome Stability (Multiple Species): Rat - % Remaining after 30 min w/NADPH [7] [%]	Liver Microsome Stability (Multiple Species): Monkey - % Remaining after 30 min w/NADPH [8] [%]	EC50 [9] [nM]	IC50 [10] [nM]	SMILES	24 hr Dox Inducible TNFaFLGluc 293FRT/TO: TNF/PD1 [1]	24 hr Dox Inducible IL2FLGluc 293FRT/TO: IL2/PD1 [2]
> 25000	19900	5.93	> 25000	13000	1.81	4.96	1.07	> 25000	129	O=C(Nc1nc(/C=C/c2cocn2)cs1)c1cccn1Cc1ccncc1 [Compound B1, (E)-N-(4-(2-(oxazol-4-yl)vinyl)thiazol-2-yl)-1-(pyridin-4-ylmethyl)-1H-pyrrole-2-carboxamide]	>194	160
> 25000	> 25000	7.06	> 25000	> 25000	0.69	1.8	0.9	> 25000	220	Cc1nc(/C=C/c2csc(NC(=O)c3cccn3Cc3ccncc3)n2)co1 [Compound B2, (E)-N-(4-(2-(2-methyloxazol-4-yl)vinyl)thiazol-2-yl)-1-(pyridin-4-ylmethyl)-1H-pyrrole-2-carboxamide]	>114	110
> 25000	> 25000	1.26	> 25000	> 25000	0.87	0.69	0.47	> 25000	2160	O=C(Nc1nc(/C=C/c2ccon2)cs1)c1cccn1Cc1ccncc1 [Compound B5, (E)-N-(4-(2-(isoxazol-3-yl)vinyl)thiazol-2-yl)-1-(pyridin-4-ylmethyl)-1H-pyrrole-2-carboxamide]	>11.6	12
> 25000	> 25000	10	> 25000	> 25000	5.85	13.2	6.93	> 25000	4400	CN1CCOC(/C=C/c2csc(NC(=O)c3cccn3Cc3ccncc3)n2)C1 (stereo not drawn) [Compound B6, (E)-N-(4-(2-(4-methylmorpholin-2-yl)vinyl)thiazol-2-yl)-1-(pyridin-4-ylmethyl)-1H-pyrrole-2-carboxamide]	>5.68	5.7
7870	1270	12.3	21400	800	1.32	2.33	0.74	21900	330	O=C(Nc1nc(/C=C/C2CCc3ccccc3N2)cs1)c1cccn1Cc1ccncc1 (stereo not drawn) [Compound B7, (E)-1-(pyridin-4-ylmethyl)-N-(4-(2-(1,2,3,4-tetrahydroquinolin-2-yl)vinyl)thiazol-2-yl)-1H-pyrrole-2-carboxamide]	23.9	3.8
